Data taken from publication PMC4951311 (Oncotarget, 2016).
Entries after “also recorded” stand apart in the source; their conditions may differ. Counter-ions that a name gives are not always drawn.

What was measured:
Type in all cases: in vivo, human
[1] = Safety: adverse events graded by CTCAE v3.0 in native Chinese cancer patients
Procedure: Eligibility assessments, which consisted of a complete medical history, physical examination, ECOG performance status, vital sign measurements, concomitant drugs, ECG, laboratory tests, one or more relevant radiologic test(s) for tumor measurement (computed tomography scan, magnetic resonance imaging, X-ray, or bone scan) and tumor measurement of palpable or visible lesions, were conducted within 28 days before the lead-in day. Lead-in day (within 7 days before treatment initiation) assessments included physical examination, ECOG performance status, vital sign measurements, concomitant drugs, ECG (at 0 and 4 h) and laboratory tests.
ECGs were performed 4 h after treatment on days 1 and 2. Patients received the same assessments on day 14 as on the lead-in day, except that ECGs were performed predose (0 h) and 4 h postdose. Blood samples for PK were collected from days 14 to 18. After retreatment for 2 to 4 weeks from day 18, patients were re-evaluated to determine whether they should continue in the safety extension phase or washout prior to withdrawal from the study.
(§1) All patients who entered the safety extension phase were evaluated with a physical examination, vital signs, laboratory tests, concomitant drugs, ECG at a 4-week follow-up visit, tumor measurements and imaging studies at 4- to 8-week intervals.
(§2) All observed AEs were graded using the CTCAE, version 3.0 (NCI 2003). Imaging studies of involved disease sites were repeated every 4 to 8 weeks in patients who entered the safety extension phase. All lesion assessments, whether by physical examination or radiologic methods, were repeated by the same methods at least 4 weeks following the initial observation of an objective response for response confirmation. Responses were recorded based on Response Evaluation Criteria in Solid Tumors, version 1.0 (RECIST 1.0), and Revised Response Criteria for Malignant Lymphoma.

[2] = system: refractory solid tumors and lymphoma; assay: Anti-tumor response (RECIST 1.0 / Revised Response Criteria for Malignant Lymphoma), safety extension phase
Procedure: as §1, §2

[3] = Steady-state plasma pharmacokinetics of enzastaurin and metabolites in native Chinese cancer patients (LC-MS/MS, noncompartmental)
Procedure: Then, the study drug ceased for three days (days 15 to 17) and resumed on day 18, after the last PK sample was obtained. During the study, dosing occurred at approximately the same time of day for each individual patient.
Nominal collection times were day 14 predose and 1, 2, 4, 6, 8, 10, 24, 48, 72, and 96 h postdose. […] The actual sampling time was accurately recorded for analysis.
Pharmacokinetic parameters were calculated using noncompartmental methods of analysis using WinNonlin (Pharsight Corp., Cary, NC, USA). […] Total plasma analyte AUCτ, ss and Cav ss were calculated by summing the respective AUCτ, ss or Cav, ss estimates for each of the 4 individual analytes. Total plasma analyte Cmax was reported as the highest sum of individual analyte concentrations at any given sampling time during a concentration-time profile, not the sum of the Cmax of each analyte. […] The AUC was calculated by a combination of linear and logarithmic trapezoidal methods. The linear trapezoidal method was employed up to tmax, and the log trapezoidal method was then used for data after tmax. PK measurements were calculated based on the actual collection times. Patients with insufficient data were excluded from the analysis.

[4] = of 9 non-Hodgkin lymphoma patients
[5] = of 10 evaluated lymphoma patients

In the case of Cn1cc(C2=C(c3cn(C4CCN(Cc5ccccn5)CC4)c4ccccc34)C(=O)NC2=O)c2ccccc21 [enzastaurin, Enzastaurin monohydrochloride], the Tolerability ([1]; 500 mg daily, Chinese patients) is reported as “well tolerated with minimal toxicity”, the “Deaths or serious adverse events during the study” value ([1]; 500 mg once daily) is reported as “No deaths or other serious adverse events; also recorded: Neither drug-related deaths nor serious AEs were reported” and the “Discontinuation because of an AE” value ([1]; 500 mg once daily) is reported as “No patients discontinued because of an AE; also recorded: No patient withdrew from the study because of toxicity”. For the same compound, the “Patients reporting at least 1 AE (percent)” value ([1]; PK phase) was 80%, the “Patients reporting at least 1 AE, drug related” value ([1]; PK phase) was 14 and the “Patients reporting at least 1 AE” value ([1]; PK phase, 25 patients treated) was 20 patients. For the same compound, the “Number of patients with drug-related abdominal pain, grade 0” value ([1]; maximum grade 0, n = 25) was 22, the “Number of patients with drug-related anemia, grade 0” value ([1]; maximum grade 0, n = 25) was 24 and the “Number of patients with drug-related chromaturia, grade 0” value ([1]; maximum grade 0, n = 25) was 22. The “Number of patients with drug-related diarrhea, grade 0” value ([1]; maximum grade 0, n = 25) was 24, the “Number of patients with drug-related fatigue, grade 0” value ([1]; maximum grade 0, n = 25) was 24 and the “Number of patients with drug-related increased ALT, grade 0” value ([1]; maximum grade 0, n = 25) was 22. The “Number of patients with drug-related increased AST, grade 0” value ([1]; maximum grade 0, n = 25) was 23, the “Number of patients with drug-related insomnia, grade 0” value ([1]; maximum grade 0, n = 25) was 24 and the “Number of patients with drug-related leukopenia, grade 0” value ([1]; maximum grade 0, n = 25) was 23. For the same compound, the “Number of patients with drug-related lymphocytopenia, grade 0” value ([1]; maximum grade 0, n = 25) was 23, the “Number of patients with drug-related nausea, grade 0” value ([1]; maximum grade 0, n = 25) was 24 and the “Number of patients with drug-related neutropenia, grade 0” value ([1]; maximum grade 0, n = 25) was 24. For the same compound, the “Number of patients with drug-related thrombocytopenia, grade 0” value ([1]; maximum grade 0, n = 25) was 24, the “Number of patients with drug-related QT prolongation, grade 0” value ([1]; maximum grade 0, n = 25, 500 mg daily) was 21 and the “Number of patients with drug-related abdominal pain, grade 1” value ([1]; maximum grade 1, n = 25) was 3. The “Number of patients with drug-related anemia, grade 1” value ([1]; maximum grade 1, n = 25) was 1, the “Number of patients with drug-related chromaturia, grade 1” value ([1]; maximum grade 1, n = 25) was 3 and the “Number of patients with drug-related fatigue, grade 1” value ([1]; maximum grade 1, n = 25) was 1. The “Number of patients with drug-related increased ALT, grade 1” value ([1]; maximum grade 1, n = 25) was 3, the “Number of patients with drug-related increased AST, grade 1” value ([1]; maximum grade 1, n = 25) was 2 and the “Number of patients with drug-related leukopenia, grade 1” value ([1]; maximum grade 1, n = 25) was 1. For the same compound, the “Number of patients with drug-related lymphocytopenia, grade 1” value ([1]; maximum grade 1, n = 25) was 1, the “Number of patients with drug-related nausea, grade 1” value ([1]; maximum grade 1, n = 25) was 1 and the “Number of patients with drug-related neutropenia, grade 1” value ([1]; maximum grade 1, n = 25) was 1. The “Number of patients with drug-related thrombocytopenia, grade 1” value ([1]; maximum grade 1, n = 25) was 1, the “Number of patients with drug-related QT prolongation, grade 1” value ([1]; maximum grade 1, n = 25, 500 mg daily) was 1 and the “Number of patients with drug-related diarrhea, grade 2” value ([1]; maximum grade 2, n = 25) was 1. The “Number of patients with drug-related insomnia, grade 2” value ([1]; maximum grade 2, n = 25) was 1, the “Number of patients with drug-related leukopenia, grade 2” value ([1]; maximum grade 2, n = 25) was 1 and the “Number of patients with drug-related lymphocytopenia, grade 2” value ([1]; maximum grade 2, n = 25) was 1. For the same compound, the “Number of patients with drug-related QT prolongation, grade 2” value ([1]; maximum grade 2, n = 25, 500 mg daily) was 2, the “Number of patients with drug-related QT prolongation, grade 3” value ([1]; maximum grade 3, n = 25, 500 mg daily) was 1 and the “Patients who experienced grade 3 AEs” value ([1]; regardless of causality, CTCAE) was 7 patients. For the same compound, the “Patients who experienced a grade 4 AE” value ([1]; regardless of causality, neutropenia considered caused by leukemia) was 1, the “Patients reporting at least 1 AE (percent)” value ([1]; safety extension phase) was 53.3% and the “Patients reporting at least 1 AE, drug related” value ([1]; safety extension phase) was 5. The “Patients reporting at least 1 AE” value ([1]; safety extension phase, 15 patients) was 8 patients, the “NHL patients who achieved a partial response” value [2, 4] was 1 and the “NHL patients who achieved stable disease” value [2, 4] was 4. The “NHL patients with complete response on enzastaurin maintenance therapy after salvage chemotherapy” value [2, 4] was 1, the “Lymphoma patients with progressive disease” value [2, 5] was “three” and the “Lymphoma patients with stable disease” value [2, 5] was “five”. For the same compound, the “Duration of stable disease” value ([2]; one Hodgkin lymphoma patient) was 22.1 months, the “Duration of stable disease” value ([2]; one follicular lymphoma patient) was 25.2 months and the “Duration of partial response” value ([2]; one patient with relapsed DLBCL) was 8.1 months. For the same compound, the “Disease-free time on enzastaurin after complete response following salvage chemotherapy” value ([2]; one patient with relapsed DLBCL, still on drug at last follow-up) was 30 months, the “Activity in advanced/metastatic solid tumors” value ([2]; overall judgement) was “poor activity” and the Efficacy against lymphoma ([2]; overall judgement) was “limited efficacy”. The “Time of treatment at which partial response was observed” value ([2]; relapsed DLBCL patient, PET-CT) was 1.8 months, the “Cav, ss” value ([3]; 500 mg orally once daily, steady state, geometric mean (% CV), N = 23) was 1,210 nmol/L and the “Cav, ss” value ([3]; 500 mg orally once daily, steady state, geometric mean (% CV), N = 23, listed as Enzastaurin) was 1210 (128) nmol/L. For the same compound, the Cmax ([3]; human, plasma, po, 500 mg) was 2370 nM, the Tmax ([3]; human, plasma, po, 500 mg, 500 mg orally once daily, steady state, median and range, N = 23) was at most 4 h and the AUC ([3]; human, plasma, po, 500 mg orally once daily, steady state, one dosing interval, geometric mean (% CV), N = 23) was 29.1 µM·h. It also gave a half-life ([3]; human, plasma, po, 500 mg orally once daily, washout days 15-17, geometric mean and range, N = 21) of 14 h.
